We go through 4 substances from patent US7371734B2, “Oligonucleotide compositions and their use for the modulation of immune responses” (Bioniche Life Sciences Inc., priority 2002, dated 2008).

Marks after values point to notes of the source that are not given here.

Holding throughout (format): cell-based
Data set [1] deals with Human dendritic cells. As to the kind of experiment: Induction of IFN-gamma production by DC (ELISA). The conditions noted are these: 100 μg, 48 hours. The protocol:
(§1) Human dendritic cells were obtained from Clonetics (San Diego, Calif., USA) and were cultured in the medium recommended by Clonetics. DC were obtained from three different individuals (see Table 1). Major histocompatability typing was performed on each of these individuals and several of the HLA (human leukocyte antigens) types are shown.
DC were seeded in 1.0 ml at 1.0×10^5 cells/ml in 6-well flat-bottomed tissue culture plates for 48 hours with 100 μg of6 base N1A, N1B, N2A, N2B, N3A, N3B, N4A, N4B, N5A, N5B, N6A, N6B, N7A or N7B polynucleotides. Production of IFN-gamma was determined in 100 μl of culture supernatant using a commercial ELISA (BioSource) after 48 hours of incubation. Results are expressed as the “fold” (x) increase in IFN-gamma production by treated DC compared to control cells.

For data set [2], the system named is Human dendritic cells. As to the kind of experiment: CD86 levels at the DC cell surface (flow cytometry). The conditions noted are these: 100 μg, 48 hours. The protocol: as §1
DC from individuals B and C were seeded in 1.0 ml at 1.0×10^5 cells/ml in 6-well flat-bottomed tissue culture plates for 48 hours with 100 μg of 6 base N1A, N1B, N2A, N2B, N3A, N3B, N4A, N4B, N5A, N5B, N6A, N6B, N7A or N7B polynucleotides. The level of CD86 at the cell surface was determined after 48 hours of incubation by flow cytometry using a PE-conjugated monoclonal antibody directed to CD86 (Serotec) and analyzed by CELLQuest Pro. Results are expressed as the percentage of CD86^hi DC following treatment.
In general terms: A flow cytometer gives signals particle by particle.

In data set [3] the test system is Human dendritic cells. Description: Increase in cell size and granularity of DC (flow cytometry). The conditions noted are these: 100 μg polynucleotide, 48 hours. The protocol:
as §1
DC were seeded in 1.0 ml at 1.0×10^5 cells/ml in 6-well flat-bottomed tissue culture plates for 48 hours with 100 μg of 6 base N1A, N1B, N2A, N2B, N3A, N3B, N4A, N4B, N5A, N5B, N6A, N6B, N7A or N7B polynucleotides. Cell size (FCS: forward side scatter) and granularity (S SC: side light scatter) were determined by flow cytometry using a FACSCalibur and analyzed using the CELLQuest Pro software (both from Becton-Dickinson, San Diego, Calif., USA). Percentage of DC showing a FCS>500 units and a SSC>400 units have been determined after treatment with 3-OH, 5-OH polynucleotides for DC isolated from three different individuals.

For data set [4], the system named is Human dendritic cells. Description: Induction of IL-1beta production by DC (ELISA). The conditions noted are these: 100 μg, 48 hours. On the procedure:
as §1
DC were seeded in 1.0 ml at 1.0×10^5 cells/ml in 6-well flat-bottomed tissue culture plates for 48 hours with 100 μg of 6 base N1A, N1B, N2A, N2B, N3A, N3B, N4A, N4B, N5A, N5B, N6A, N6B, N7A or N7B polynucleotides. Production of IL-1beta was determined in 100 μl of culture supernatant using a commercial ELISA (BioSource, Camarillo, Calif., USA) after 48 hours of incubation. Results are expressed as the “fold” (x) increase in IL-1beta production by treated DC compared to control cells.
A general note: An ELISA detects its analyte on a solid surface through an enzyme-linked reagent.

Data set [5] deals with Human dendritic cells. As to the kind of experiment: CD80 levels at the DC cell surface (flow cytometry). The conditions noted are these: 100 μg, 48 hours. The protocol: as §1
DC from individuals B and C were seeded in 1.0 ml at 1.0×10^5 cells/ml in 6-well flat-bottomed tissue culture plates for 48 hours with 100 μg of 6 base N1A, N1B, N2A, N2B, N3A, N3B, N4A, N4B, N5A, N5B, N6A, N6B, N7A or N7B polynucleotides. The level of CD80 at the cell surface was determined after 48 hours of incubation by flow cytometry using a FITC-conjugated monoclonal antibody directed to CD80 (Serotec, Oxford, U.K.) and analyzed by CELLQuest. Results are expressed as the percentage of CD80^hi DC following treatment.

The test system of data set [6] is Human dendritic cells. Description: Induction of IL-12 production by DC (ELISA). The conditions noted are these: 100 μg, 48 hours. The protocol:
as §1
DC were seeded in 1.0 ml at 1.0×10^5 cells/ml in 6-well flat-bottomed tissue culture plates for 48 hours with 100 μg of 6 base N1A, N1B, N2A, N2B, N3A, N3B, N4A, N4B, N5A, N5B, N6A, N6B, N7A or N7B polynucleotides. Production of IL-12 was determined in 100 μl of culture supernatant using a commercial ELISA (BioSource) after 48 hours of incubation. Results are expressed as the “fold” (x) increase in IL-12 production by treated DC compared to control cells.

The test system of data set [7] is Human dendritic cells. Description: CD40 levels at the DC cell surface (flow cytometry). The conditions noted are these: 100 μg, 48 hours. On the procedure:
as §1
DC from individuals B and C were seeded in 1.0 ml at 1.0×10^5 cells/ml in 6-well flat-bottomed tissue culture plates for 48 hours with 100 μg of 6 base N1A, N1B, N2A, N2B, N3A, N3B, N4A, N4B, N5A, N5B, N6A, N6B, N7A or N7B polynucleotides. The level of CD40 at the cell surface was determined after 48 hours of incubation by flow cytometry (FACSCalibur system) using a FITC-conjugated monoclonal antibody directed to CD40 and analyzed by CELLQuest Pro (all from Becton Dickinson). Results are expressed as the percentage of CD40^hi DC following treatment. The term “CD40^hi” refers to a population of cells identified by flow cytometry as having higher than baseline expression of CD40.

The subject of data set [8] is Human dendritic cells. Description: MHC-II levels at the DC cell surface (flow cytometry). The conditions noted are these: DC from individual B; 100 μg, 48 hours. The protocol:
as §1
DC from individual B were seeded in 1.0 ml at 1.0×10^5 cells/ml in 6-well flat-bottomed tissue culture plates for 48 hours with 100 μg of 6 base N1A, N1B, N2A, N2B, N3A, N3B, N5A, N5B, N6A, N6B, N7A or N7B polynucleotides. The level of MHC II at the cell surface was determined after 48 hours of incubation by flow cytometry using a FITC-conjugated monoclonal antibody directed to MHC II (Serotec) and analyzed by CELLQuest Pro. Results are expressed as the percentage of MHC II^hi DC following treatment.

Consider 5′ GTGTGT3′ [N1B], for which the figures for the “IFN-gamma production by DC (fold increase compared to untreated DC)” value in the data set on Human dendritic cells [1] (DC isolated from individual A), with Human dendritic cells [1] (DC isolated from individual B) and in the data set on Human dendritic cells [1] (DC isolated from individual C) were 0.9 fold, 1.0 fold and 1.0 fold, respectively. For the same substance, the “The percentage of CD86^hi DC following treatment” value in the data set with Human dendritic cells [2] (DC from individual B) was 19%; in the data set with Human dendritic cells [2] (DC from individual C), 27%. Further, the “Percentage of DC showing a FCS > 500 units and a SSC > 400 units” value in the data set with Human dendritic cells [3] (DC isolated from individual A) came out at 5%; in the data set on Human dendritic cells [3] (DC isolated from individual B), 17%; in the data set on Human dendritic cells [3] (DC isolated from individual C) it was 25%. In addition, the “IL-1beta production by DC (fold increase compared to untreated DC)” value in the data set with Human dendritic cells [4] (DC isolated from individual A), in the data set on Human dendritic cells [4] (DC isolated from individual B) and in the data set with Human dendritic cells [4] (DC isolated from individual C) was 1.0 fold in each case. Besides, the “The percentage of CD80^hi DC following treatment” value in the data set with Human dendritic cells [5] (DC from individual B) is reported as 11%; in the data set on Human dendritic cells [5] (DC from individual C), 13%. The “IL-12 production by DC (fold increase compared to untreated DC)” value is recorded as 1.5 fold in the data set on Human dendritic cells [6] (DC isolated from individual A), 1.3 fold with Human dendritic cells [6] (DC isolated from individual B) and 1.1 fold with Human dendritic cells [6] (DC isolated from individual C). The “The percentage of CD40^hi DC following treatment” value with Human dendritic cells [7] (DC from individual B) is listed as 31** %; in the data set on Human dendritic cells [7] (DC from individual C) it was 18%. Further, in the data set on Human dendritic cells [8], the “The percentage of MHC-II^hi DC following treatment” value came to 7%.

As to “5′GGCCGG3′ [N4A] (DNA, all phosphodiester, methylation of C not given here)”, the “IFN-gamma production by DC (fold increase compared to untreated DC)” value in the data set with Human dendritic cells [1] (DC isolated from individual A) and with Human dendritic cells [1] (DC isolated from individual C) was 1.0 fold each time. In addition, the “The percentage of CD86^hi DC following treatment” value in the data set with Human dendritic cells [2] (DC from individual C) amounted to 23%. The “Percentage of DC showing a FCS > 500 units and a SSC > 400 units” value in the data set with Human dendritic cells [3] (DC isolated from individual A) is on record as 4%; in the data set on Human dendritic cells [3] (DC isolated from individual C) it was 19%. Further, the “IL-1beta production by DC (fold increase compared to untreated DC)” value in the data set with Human dendritic cells [4] (DC isolated from individual A) was 0.9 fold; with Human dendritic cells [4] (DC isolated from individual C), 1.0 fold. Also, the “The percentage of CD80^hi DC following treatment” value in the data set on Human dendritic cells [5] (DC from individual B) is given as 11%; in the data set on Human dendritic cells [5] (DC from individual C) it was 21** %. Also, the “IL-12 production by DC (fold increase compared to untreated DC)” value came out at 1.2 fold in the data set with Human dendritic cells [6] (DC isolated from individual A) and 1.0 fold in the data set on Human dendritic cells [6] (DC isolated from individual C). In the data set on Human dendritic cells [7] (DC from individual C), the “The percentage of CD40^hi DC following treatment” value is 16%.

In the case of “5′GGCCGG3′ [N4B] (DNA, all phosphorothioate, methylation of C not given here)”, the “IFN-gamma production by DC (fold increase compared to untreated DC)” value in the data set with Human dendritic cells [1] (DC isolated from individual A) and in the data set on Human dendritic cells [1] (DC isolated from individual C) was 1.0 fold each time. The “The percentage of CD86^hi DC following treatment” value in the data set on Human dendritic cells [2] (DC from individual C) is 32%. For the same substance, the “Percentage of DC showing a FCS > 500 units and a SSC > 400 units” value in the data set on Human dendritic cells [3] (DC isolated from individual A) stood at 4%; in the data set with Human dendritic cells [3] (DC isolated from individual C), 32%. Further, the “IL-1beta production by DC (fold increase compared to untreated DC)” value with Human dendritic cells [4] (DC isolated from individual A) and with Human dendritic cells [4] (DC isolated from individual C) was 1.0 fold each time. Moreover, the “The percentage of CD80^hi DC following treatment” value in the data set on Human dendritic cells [5] (DC from individual B) worked out at 9%; in the data set on Human dendritic cells [5] (DC from individual C), 13%. Besides, the results for the “IL-12 production by DC (fold increase compared to untreated DC)” value in the data set on Human dendritic cells [6] (DC isolated from individual A) and in the data set with Human dendritic cells [6] (DC isolated from individual C) were 1.3 fold and 2.6 fold, respectively. The “The percentage of CD40^hi DC following treatment” value in the data set on Human dendritic cells [7] (DC from individual C) is 16%.

For “5′GGGCGG3′ [N7B] (DNA, all phosphorothioate, methylation of C not given here)”, the “IFN-gamma production by DC (fold increase compared to untreated DC)” value in the data set with Human dendritic cells [1] (DC isolated from individual A) and in the data set with Human dendritic cells [1] (DC isolated from individual C) was 1.1 fold in each case. The “The percentage of CD86^hi DC following treatment” value in the data set with Human dendritic cells [2] (DC from individual C) stood at 34%. For the same substance, the “Percentage of DC showing a FCS > 500 units and a SSC > 400 units” value was 16% with Human dendritic cells [3] (DC isolated from individual A) and 31% in the data set on Human dendritic cells [3] (DC isolated from individual C). The “IL-1beta production by DC (fold increase compared to untreated DC)” value in the data set with Human dendritic cells [4] (DC isolated from individual A) was determined as 1.1 fold; in the data set with Human dendritic cells [4] (DC isolated from individual C), 0.9 fold. For the same substance, the “The percentage of CD80^hi DC following treatment” value in the data set on Human dendritic cells [5] (DC from individual B) and in the data set with Human dendritic cells [5] (DC from individual C) was 5% each time. In addition, the “IL-12 production by DC (fold increase compared to untreated DC)” value in the data set with Human dendritic cells [6] (DC isolated from individual A) was found to be 1.8 fold; in the data set on Human dendritic cells [6] (DC isolated from individual C), 1.0 fold. The “The percentage of CD40^hi DC following treatment” value in the data set with Human dendritic cells [7] (DC from individual C) was 18%. In addition, the “The percentage of MHC-II^hi DC following treatment” value in the data set on Human dendritic cells [8] was 31** %.
